Values after ≈ are worked out from the molar mass of the structure shown.
Assays:
[1] = system: Aspergillus niger KF103 (ATCC 6275); assay: Antifungal activity by paper disc method; format: cell-based; conditions: ATCC6275, 10 μg, GY agar medium, 27° C. for 24 hours
Procedure: (§1) Biological properties of K99-5278 substance of the present invention are explained in detail hereinbelow. • (1) Assays of antifungal activities by paper disc method (filter paper disc method)
(§2) Antifungal activities of K99-5278 substance were performed using Aspergillus niger KF103 (ATCC 6275), Mucor racemosus KF223 (IFO 4581), Candida albicans KF1 and Saccharomyces cerevisiae KF26. Aspergillus niger KF103 (ATCC 6275) and Candida albicans KF1 were inoculated at 0.2%, and Mucor racemosus KF223 (IFO 4581) and Saccharomyces cerevisiae KF26 were inoculated at 0.3% in GY agar medium (glucose 1.0%, yeast extract 0.5%, agar 0.8%, pH 6.0). Activities were evaluated by paper disc method (thickness: 6 mm: Advantec Inc., Japan), and a diameter of the inhibition ring was measured after incubating at 27° C. for 24 hours.

Candida albicans KF1 = assay: Antifungal activity by paper disc method; format: cell-based; conditions: 10 μg, GY agar medium, 27° C. for 24 hours
Procedure: as §1, §2

[2] = system: Mucor racemosus KF223 (IFO 4581); assay: Antifungal activity by paper disc method; format: cell-based; conditions: IFO4581, 10 μg, GY agar medium, 27° C. for 24 hours
Procedure: as §1, §2

[3] = system: Saccharomyces cerevisiae KF26; assay: Antifungal activity by paper disc method; format: cell-based; conditions: 10 μg, GY agar medium, 27° C. for 24 hours
Procedure: as §1, §2

[4] = system: Saccharomyces cerevisiae KF26; assay: Antifungal activity by liquid culture method (turbidity at 550 nm); format: cell-based; conditions: Saccharomyces cerevisiae KF26, liquid medium, 27° C. for 24 hours; read-out: IC50 for growth of the test organism
Procedure: Antifungal activities of K99-5278A substance, K99-5278B substance and K99-5278C substance by the liquid medium were performed as follows. • 1) Saccharomyces cerevisiae KF26 was used as a test organism. Samples dissolved in DMSO were added in the 96 well microplate and the solvent was distilled off in vacuo. Suspension, in which Saccharomyces cerevisiae KF26 0.3% was inoculated in a medium (glucose 1.0% and yeast extract 0.5%, pH 6.0), 200 μl/well was added and incubated at 27° C. for 24 hours. After the incubation, turbidity was measured by using absorption spectrometer with wavelength at 550 nm. Activity was determined by setting the value without drug addition as 100%, and the concentration shown by 50% turbidity was set as IC50.

Aspergillus niger KF103 = assay: as above; format: cell-based; conditions: Aspergillus niger KF103, liquid medium, 27° C. for 48 hours; read-out: IC50 for growth of the test organism
Procedure: (§3) Samples dissolved in DMSO were added in the 96 well microplate and the solvent was distilled off in vacuo. Suspension, in which Aspergillus niger KF103 0.3% was inoculated in a medium (glucose 1.0% and yeast extract 0.5%, pH 6.0), 200 μl/well was added and incubated at 27° C. for 48 hours. After the incubation, turbidity was measured by using absorption spectrometer with wavelength at 550 nm. Activity was determined by setting the value without drug addition as 100%, and the concentration shown by 50% turbidity was set as IC50.

Mucor racemosus KF223 = assay: as above; format: cell-based; conditions: Mucor racemosus KF223, liquid medium, 27° C. for 24 hours; read-out: IC50 for growth of the test organism
Procedure: as §3, with “Mucor racemosus KF223” for “Aspergillus niger KF103”, “24” for “48”

Candida albicans KFI = assay: as above; format: cell-based; conditions: liquid medium, 27° C. for 24 hours, read-out: IC50 for growth of the test organism
Procedure: as §3, with “Candida albicans KF1” for “Aspergillus niger KF103”, “24” for “48”

| Compound | zone of inhibition at 10 µg/disc [1] [mm] | zone of inhibition at 10 µg/disc (Candida albicans KF1) [mm] | zone of inhibition at 10 µg/disc [2] [mm] | zone of inhibition at 10 µg/disc [3] [mm] | IC50 [4] [µg/mL] | IC50 (Aspergillus niger KF103) [µg/mL] | IC50 (Mucor racemosus KF223) [µg/mL] | IC50 (Candida albicans KFI) [µg/mL] | Solubility in solvent (Solubility in solvent; chloroform) | Solubility in solvent (Solubility in solvent; dimethyl sulfoxide (DMSO)) | Solubility in solvent (Solubility in solvent; ethyl acetate) | Solubility in solvent (Solubility in solvent; hexane) | Solubility in solvent (Solubility in solvent; methanol) | Solubility in solvent (Solubility in solvent; water) |
| --- | --- | --- | --- | --- | --- | --- | --- | --- | --- | --- | --- | --- | --- | --- |
| CC1/C=C/C=C/C=C/C=C/C=C/C(O)CC(O)CC(O)CC(O)CCCC(O)CC(O)C(C)C(=O)OC1C (stereo not drawn) [K99-5278A substance] | 18 | 9 | 9 | 12 | 7.2 (≈ 13.4 µM) | 0.32 (≈ 0.596 µM) | 15 (≈ 27.9 µM) | 61 (≈ 114 µM) | slightly soluble | soluble | slightly soluble | insoluble | soluble | insoluble |
| CCC1OC(=O)C(C)C(O)CC(O)CCCC(O)CC(O)CC(O)C(C)C(O)/C=C/C=C/C=C/C=C/C=C/C1C (stereo not drawn) [K99-5278B substance] | 16 | 7 | 9 | 12 | 11.8 (≈ 20.9 µM) | 0.53 (≈ 0.938 µM) | 25 (≈ 44.3 µM) | 100 (≈ 177 µM) | insoluble | soluble | insoluble | insoluble | soluble | insoluble |
| CC(C)C1OC(=O)C(C)C(O)CC(O)CCCC(O)CC(O)CC(O)C(C)C(O)/C=C/C=C/C=C/C=C/C=C/C1C (stereo not drawn) [K99-5278C substance] | 15 | 8 | 8 | 9 | 16.6 (≈ 28.7 µM) | 0.75 (≈ 1.3 µM) | 35 (≈ 60.5 µM) | 140 (≈ 242 µM) | slightly soluble | soluble | slightly soluble | insoluble | soluble | insoluble |

Reference: US20060014825A1, “Novel k99-5278 substance and a process for producing the same” (priority 2002, published 2006)
